Values joined by “and” are separate entries in the source; they are usually repeats but may differ in a detail not shown here. Equal entries are not always repeated. Toxic doses and inconclusive results are not listed.
Test system: L1210 leukemia ip in BDF1 mice, survival T/C
Experiment: NCI In Vivo Anticancer Drug Screen. Data for tumor model L1210 Leukemia (intraperitoneal) in B6D2F1 (BDF1) mice
Conditions: endpoint: mean survival time, higher = longer survival
Procedure, shortened: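 Tumor cells were implanted, animals were treated, and survival was followed. The result divides the treated measurement by the vehicle-control measurement.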

[1] = dose: 100.0 mg/kg/injection, schedule: Q01DX009 (ip), vehicle: Klucel (hydroxypropylcellulose) (HPC)
[2] = dose: 200.0 mg/kg/injection, schedule: Q01DX009 (ip), vehicle: Klucel (hydroxypropylcellulose) (HPC)
[3] = dose: 400.0 mg/kg/injection, schedule: Q01DX009 (ip), vehicle: Klucel (hydroxypropylcellulose) (HPC)
[4] = dose: 100.0 mg/kg/injection, schedule: Q04DX003 (ip), vehicle: Klucel (hydroxypropylcellulose) (HPC)
[5] = dose: 200.0 mg/kg/injection, schedule: Q04DX003 (ip), vehicle: Klucel (hydroxypropylcellulose) (HPC)
[6] = dose: 400.0 mg/kg/injection, schedule: Q04DX003 (ip), vehicle: Klucel (hydroxypropylcellulose) (HPC)
[7] = dose: 50.0 mg/kg/injection, schedule: Q01DX009 (ip), vehicle: saline
[8] = dose: 100.0 mg/kg/injection, schedule: Q01DX009 (ip), vehicle: saline
[9] = dose: 200.0 mg/kg/injection, schedule: Q01DX009 (ip), vehicle: saline
[10] = dose: 100.0 mg/kg/injection, schedule: Q01DX001 (ip), vehicle: saline
[11] = dose: 200.0 mg/kg/injection, schedule: Q01DX001 (ip), vehicle: saline
[12] = dose: 100.0 mg/kg/injection, schedule: Q04DX003 (ip), vehicle: saline with Tween-80
[13] = dose: 200.0 mg/kg/injection, schedule: Q01DX009 (ip), vehicle: saline with Tween-80
[14] = dose: 400.0 mg/kg/injection, schedule: Q01DX009 (ip), vehicle: saline with Tween-80
[15] = dose: 6.25 mg/kg/injection, schedule: Q01DX009 (ip), vehicle: Klucel (hydroxypropylcellulose) (HPC)
[16] = dose: 12.5 mg/kg/injection, schedule: Q01DX009 (ip), vehicle: Klucel (hydroxypropylcellulose) (HPC)
[17] = dose: 400.0 mg/kg/injection, schedule: Q01DX001 (ip), vehicle: saline
[18] = dose: 100.0 mg/kg/injection, schedule: Q04DX002 (ip), vehicle: Klucel (hydroxypropylcellulose) (HPC)
[19] = dose: 200.0 mg/kg/injection, schedule: Q04DX002 (ip), vehicle: Klucel (hydroxypropylcellulose) (HPC)
[20] = dose: 400.0 mg/kg/injection, schedule: Q04DX002 (ip), vehicle: Klucel (hydroxypropylcellulose) (HPC)

Compound: O=C(NC1CCCCC1)N(C1CCCCC1)C1CCCCC1
- T/C [1]: 90 % of control
- T/C [2]: 103 % of control
- T/C [3]: 92 % of control

Compound: O=C(O)COc1cc(OCC(=O)O)c([N+](=O)[O-])cc1[N+](=O)[O-]
- T/C [4]: 102 % of control
- T/C [5]: 102 % of control
- T/C [6]: 91 % of control

Compound: CCCCCCCCCCCCCCCCNS(=O)(=O)c1ccc(N2CCOCC2)c(N)c1
- T/C [4]: 93 % of control
- T/C [5]: 98 % of control
- T/C [6]: 94 % of control

Compound: O=C1NC(=S)S/C1=C/C=C/c1ccccc1
- T/C (dose: 100.0 mg/kg/injection, schedule: Q04DX002 (ip), vehicle: saline with Tween-80): 95 % of control
- T/C (dose: 200.0 mg/kg/injection, schedule: Q04DX002 (ip), vehicle: saline with Tween-80): 87 % of control
- T/C (dose: 400.0 mg/kg/injection, schedule: Q04DX002 (ip), vehicle: saline with Tween-80): 98 % of control

Compound: c1ccc(P2(c3ccccc3)=NP(c3ccccc3)(c3ccccc3)=NP(c3ccccc3)(c3ccccc3)=N2)cc1
- T/C [7]: 89 % of control
- T/C [8]: 86 % of control
- T/C [9]: 88 % of control

Compound: CN1CCC(O)(c2ccccc2)C(C(=O)c2ccccc2)C1 (stereo not drawn)
- T/C [10]: 101 % of control
- T/C [11]: 93 % of control

Compound: CC(=O)OCC(CCn1ccc(=O)[nH]c1=O)COC(C)=O
- T/C (dose: 100.0 mg/kg/injection, schedule: Q01DX009 (ip), vehicle: saline with Tween-80): 93 % of control
- T/C [12]: 100 % of control
- T/C [13]: 95 % of control
- T/C (dose: 200.0 mg/kg/injection, schedule: Q04DX003 (ip), vehicle: saline with Tween-80): 105 % of control
- T/C [14]: 100 % of control
- T/C (dose: 400.0 mg/kg/injection, schedule: Q04DX003 (ip), vehicle: saline with Tween-80): 106 % of control

Compound: O=C(O)C1C2CCCCCCC21 (stereo not drawn)
- T/C (dose: 50.0 mg/kg/injection, schedule: Q01DX009 (ip), vehicle: Klucel (hydroxypropylcellulose) (HPC)): 108 % of control
- T/C (dose: 100.0 mg/kg/injection, schedule: Q01DX005 (ip), vehicle: Klucel (hydroxypropylcellulose) (HPC)): 95 % of control
- T/C [1]: 108 % of control
- T/C (dose: 200.0 mg/kg/injection, schedule: Q01DX005 (ip), vehicle: Klucel (hydroxypropylcellulose) (HPC)): 103 % of control
- T/C [2]: 97 % of control

Compound: Clc1ccc2nc(CBr)cnc2c1
- T/C (dose: 3.13 mg/kg/injection, schedule: Q01DX009 (ip), vehicle: Klucel (hydroxypropylcellulose) (HPC)): 97 % of control
- T/C [15]: 95 % of control and 102 % of control
- T/C [16]: 100 % of control and 120 % of control and 87 % of control
- T/C (dose: 25.0 mg/kg/injection, schedule: Q01DX009 (ip), vehicle: saline with Tween-80): 100 % of control
- T/C (dose: 25.0 mg/kg/injection, schedule: Q04DX003 (ip), vehicle: Klucel (hydroxypropylcellulose) (HPC)): 95 % of control
- T/C (dose: 50.0 mg/kg/injection, schedule: Q01DX009 (ip), vehicle: saline with Tween-80): 95 % of control
- T/C (dose: 50.0 mg/kg/injection, schedule: Q04DX003 (ip), vehicle: Klucel (hydroxypropylcellulose) (HPC)): 96 % of control
- T/C [4]: 93 % of control
- T/C [12]: 90 % of control

Compound: O=C(CN1CCOCC1)Nc1ccc(S(=O)(=O)c2ccc([N+](=O)[O-])cc2)cc1
- T/C (dose: 75.0 mg/kg/injection, schedule: Q01DX001 (ip), vehicle: acetone): 93 % of control
- T/C (dose: 150.0 mg/kg/injection, schedule: Q01DX001 (ip), vehicle: acetone): 93 % of control

Compound: COC(=O)n1nc2ccccc2c1N
- T/C [7]: 96 % of control
- T/C [8]: 96 % of control
- T/C [9]: 93 % of control

Compound: Nc1nc(SCC(=O)c2ccccc2)c2[nH]cnc2n1
- T/C (dose: 117.0 mg/kg/injection, schedule: Q01DX009 (ip), vehicle: saline with Tween-80): 153 % of control
- T/C (dose: 176.0 mg/kg/injection, schedule: Q01DX009 (ip), vehicle: saline with Tween-80): 151 % of control
- T/C [13]: 104 % of control
- T/C (dose: 264.0 mg/kg/injection, schedule: Q01DX009 (ip), vehicle: saline with Tween-80): 156 % of control
- T/C [14]: 152 % of control

Compound: Cc1ccc(S(=O)(=O)NN=C(/C=C/c2ccccc2)/C=C/c2ccccc2)cc1
- T/C (dose: 50.0 mg/kg/injection, schedule: Q01DX001 (ip), vehicle: Klucel (hydroxypropylcellulose) (HPC)): 102 % of control
- T/C (dose: 100.0 mg/kg/injection, schedule: Q01DX001 (ip), vehicle: Klucel (hydroxypropylcellulose) (HPC)): 107 % of control
- T/C (dose: 200.0 mg/kg/injection, schedule: Q01DX001 (ip), vehicle: Klucel (hydroxypropylcellulose) (HPC)): 103 % of control

Compound: Cc1ccc2nc(C#N)c(C#N)nc2c1
- T/C [15]: 106 % of control
- T/C [16]: 97 % of control
- T/C (dose: 25.0 mg/kg/injection, schedule: Q01DX009 (ip), vehicle: Klucel (hydroxypropylcellulose) (HPC)): 95 % of control and 89 % of control

Compound: O=C(O)CCCCC(=O)c1cc(O)ccc1O
- T/C [4]: 102 % of control
- T/C [5]: 104 % of control
- T/C [6]: 102 % of control

Compound: Oc1ccc2c(c1)Cc1c-2nc2ccccc2c1Cl
- T/C (dose: 50.0 mg/kg/injection, schedule: Q01DX001 (ip), vehicle: saline): 97 % of control
- T/C [10]: 98 % of control
- T/C [11]: 97 % of control
- T/C [17]: 93 % of control

Compound: CCCC1CC=CCC12C(=O)NC(=O)NC2=O (stereo not drawn)
- T/C [10]: 103 % of control
- T/C [11]: 97 % of control
- T/C [17]: 97 % of control

Compound: Nc1[nH]c(=S)[nH]c(=O)c1N=Nc1c(Br)cc(S(N)(=O)=O)cc1Br
- T/C (dose: 100.0 mg/kg/injection, schedule: Q01DX001 (ip), vehicle: carboxymethylcellulose (CMC)): 94 % of control
- T/C (dose: 200.0 mg/kg/injection, schedule: Q01DX001 (ip), vehicle: carboxymethylcellulose (CMC)): 100 % of control
- T/C (dose: 400.0 mg/kg/injection, schedule: Q01DX001 (ip), vehicle: carboxymethylcellulose (CMC)): 103 % of control

Compound: Cc1ccc(Cl)cc1NC(=O)CCc1ccccc1
- T/C [18]: 91 % of control
- T/C [19]: 94 % of control
- T/C [20]: 91 % of control

Compound: CSc1c(C(N)=O)c2c(N)ncnc2n1C1OC(CO)C(O)C1O (stereo not drawn)
- T/C [10]: 114 % of control
- T/C [11]: 121 % of control
- T/C [17]: 121 % of control

Compound: CC(C)c1cccc(OC(=O)N(C)[Si](C)(C)C)c1
- T/C (dose: 5.0 mg/kg/injection, schedule: Q01DX001 (ip), vehicle: saline): 105 % of control
- T/C (dose: 10.0 mg/kg/injection, schedule: Q01DX001 (ip), vehicle: saline): 97 % of control
- T/C (dose: 20.0 mg/kg/injection, schedule: Q01DX001 (ip), vehicle: saline): 101 % of control
- T/C (dose: 40.0 mg/kg/injection, schedule: Q01DX001 (ip), vehicle: saline): 101 % of control

Compound: CN(CCNC(=O)NCCCCCCNC(=O)NCCN(C)c1ccccc1)c1ccccc1
- T/C [18]: 105 % of control
- T/C [19]: 97 % of control
- T/C [20]: 108 % of control

Compound: O=[N+]([O-])c1cc2ccccc2o1
- T/C (dose: 50.0 mg/kg/injection, schedule: Q04DX002 (ip), vehicle: Klucel (hydroxypropylcellulose) (HPC)): 88 % of control
- T/C [18]: 97 % of control
- T/C [19]: 93 % of control

Compound: Cc1cc(C)c(S(=O)(=O)ON=C2c3ccccc3-c3ccccc32)c(C)c1
- T/C [1]: 107 % of control
- T/C [4]: 105 % of control
- T/C [2]: 104 % of control
- T/C [5]: 110 % of control
- T/C [3]: 101 % of control
- T/C [6]: 97 % of control

Source: PubChem BioAssay AID248 (DTP/NCI, 2004)
